# In patent publication US7105566B2, “Methods of treatment during vascular procedures” (Allergan, Inc., priority 2002, dated 2006):
# Values joined by “and” are separate entries in the source; they are usually repeats but may differ in a detail not shown here. Equal entries are not always repeated. “Also recorded” adds a separate entry of the source.
# Assays:
# female ZDF rats = assay: Serum triglycerides and cholesterol in female ZDF rats, Compound 1 and Compound 2 at 10 mg/kg; format: in vivo, rat; settings: 10 mg/kg oral
# Description: A similar experiment to that described above was performed. Briefly, female ZDF rats (12 weeks old) were fed either a PM 5008 diet or a GMI 13004 diet. Control vehicle consisted of 2% DMSO and 98% corn oil. Compound 1 and Compound 2 were administered at a dosage of 10 mg/kg body weight. Dosings were administered at approximately 8 a.m. Serum was collected on the first day of dosing at approximately 8 a.m. (Day 1, 0 hour) and 2 p.m. (Day 1, 6 hour); the fourth day of dosing at approximately 8 a.m. (Day 4, 0 hour); and the last day of dosing at approximately 8 a.m. (Day 7, 0 hour) and 2 p.m. (Day 7, 6 hour). The levels of triglycerides and cholesterol in the serum samples were measured. The results are shown in Table 2 and are illustrated graphically in FIGS. 3A and 3B.
# male cynomolgus monkeys = assay: Serum triglycerides of male cynomolgus monkeys treated by gastric intubation; format: in vivo, cynomolgus monkey; settings: 1.0 mg/0.4 ml/kg by gastric intubation, daily; mean of 3 monkeys
# Description: Five male cynomologus monkeys were employed in the study. […] Compound 1 is an RAR antagonist or inhibitor. The remaining two were similarly treated with a vehicle to serve as control. Serum samples were collected on days 1, 8, 15, 22 and 25 for triglyceride determination. Serum samples from days 8, 15, 22 and 25 were also assayed for the concentration of Compound 1.
# [1] = Serum concentration of Compound 1 in male cynomolgus monkeys; format: in vivo, cynomolgus monkey; settings: given orally
# Description: (§1) Five male cynomologus monkeys were employed in the study. Three of the five monkeys were treated with Compound 1 at a daily dosage of 1.25 mg/kg (orally) for a period of 25 days. Compound 1 is an RAR antagonist or inhibitor. The remaining two were similarly treated with a vehicle to serve as control. Serum samples were collected on days 1, 8, 15, 22 and 25 for triglyceride determination. Serum samples from days 8, 15, 22 and 25 were also assayed for the concentration of Compound 1.
# male cynomologus monkeys = assay: Clinical observation, body weight and food consumption of treated monkeys; format: in vivo, cynomolgus monkey; settings: daily 1.25 mg/kg orally for 25 days
# Description: as §1
# male SJL mice [2] = assay: Serum triglycerides (STG) in male SJL mice; format: in vivo, mouse; settings: 20 mg/kg oral daily
# Description: Male SJL mice were dosed orally with vehicle, Compound 1 (an RAR pan-antagonist), or Compound 3 (an RARE antagonist) for 4 consecutive days. The structure and synthesis of Compound 1 is described in Example I. The structure of Compound 3 is shown below, and the compound was synthesized using routine methods:
# The test compounds were dissolved in corn oil and given at a dosage/volume of 20 mg/5 ml/kg.
# On day 3, serum triglycerides (STG) were determined from samples collected at 7 a.m.
# (§2) On day 4, animals were fasted after dosing, starting at 8 a.m. Following 6 hours of fasting, blood samples were collected prior to intravenous injection of WR-1339 at 100 mg/5 ml/kg. Additional serum samples were collected at 1 and 2 hours after WR-1339 injection. WR-1339 is a detergent that inactivates lipoprotein lipase and thus prevents the removal of triglycerides from circulation. By measuring the increase of STG after WR-1339 administration in fasted animals, the hepatic triglyceride (HTG) output during fasting can be estimated.
# (§3) Due to the lack of effect of Compound 3 at 20 mg/kg, the dose was increased to 100 mg/kg in the same set of mice. STG was determined on day 3 prior to dosing (Day 3, 8 a.m.). […] To ensure that Compound 3 would be bioavailable, Compound 3 was dissolved in DMSO and given by intraperitoneal injections, once at 4 p.m. on day 3 and once at 8 a.m. on day 4, at a dosage of 100 mg/kg/injection. Administration of WR-1339 and blood collections on day 4 were similarly conducted as described above.
# male SJL mice [3] = assay: Hepatic triglyceride (HTG) output after WR-1339 injection in fasted male SJL mice; format: in vivo, mouse; settings: 20 mg/kg oral daily for 4 days; fasted
# Description: as §2, §3
# [4] = Stability to normal light; format: physicochemical
# [5] = GMI 13004 diet, group mean of 5 rats, first day of dosing, 2 p.m.
# [6] = GMI 13004 diet, group mean of 5 rats, first day of dosing, about 8 a.m. (baseline)
# [7] = GMI 13004 diet, group mean of 5 rats, fourth day of dosing, 8 a.m.
# [8] = GMI 13004 diet, group mean of 5 rats, last day of dosing, 2 p.m.
# [9] = GMI 13004 diet, group mean of 5 rats, last day of dosing, 8 a.m.
# [10] = GMI 13004 diet, individual animals, first day of dosing, 2 p.m.
# [11] = GMI 13004 diet, individual animals, first day of dosing, about 8 a.m. (baseline)
# [12] = GMI 13004 diet, individual animals, fourth day of dosing, 8 a.m.
# [13] = GMI 13004 diet, individual animals, last day of dosing, 2 p.m.
# [14] = GMI 13004 diet, individual animals, last day of dosing, 8 a.m.
smiles,measurement,setting,value
"CCc1ccc(C2=CC(C)(C)Sc3ccc(C#Cc4ccc(C(=O)O)cc4)cc32)cc1 [Compound 1, 4-[[4-(4-ethylphenyl)-2,2-dimethyl-(2H)-thiochromen-6-yl]-ethynyl]-benzoic acid]",effect on lowering serum cholesterol,female ZDF rats,more modest effect
same,serum triglycerides as % of pre-treatment levels,female ZDF rats,about 7%
same,"Cholesterol day 1, 6 hr, Mean",female ZDF rats; [5],107
same,"Triglycerides day 1, 6 hr, Mean",female ZDF rats; [5],1183
same,"Cholesterol day 1, 0 hr, Mean",female ZDF rats; [6],131
same,"Triglycerides day 1, 0 hr, Mean",female ZDF rats; [6],1410
same,"Cholesterol day 4, 0 hr, Mean",female ZDF rats; [7],82
same,"Triglycerides day 4, 0 hr, Mean",female ZDF rats; [7],138
same,"Cholesterol day 7, 6 hr, Mean",female ZDF rats; [8],90
same,"Triglycerides day 7, 6 hr, Mean",female ZDF rats; [8],86
same,"Cholesterol day 7, 0 hr, Mean",female ZDF rats; [9],89
same,"Triglycerides day 7, 0 hr, Mean",female ZDF rats; [9],72
same,"Cholesterol day 1, 6 hr",female ZDF rats; [10],132 and 90 (2×) and 126 and 96
same,"Triglycerides day 1, 6 hr",female ZDF rats; [10],1248 and 750 and 1674 and 978 and 1266
same,"Cholesterol day 1, 0 hr",female ZDF rats; [11],162 and 108 (2×) and 156 and 120
same,"Triglycerides day 1, 0 hr",female ZDF rats; [11],1770 and 1182 and 1500 and 1278 and 1320
same,"Cholesterol day 4, 0 hr",female ZDF rats; [12],78 and 90 (2×) and 84 and 66
same,"Triglycerides day 4, 0 hr",female ZDF rats; [12],174 and 132 and 114 and 102 and 168
same,"Cholesterol day 7, 6 hr",female ZDF rats; [13],102 and 72 and 132 and 48 and 96
same,"Triglycerides day 7, 6 hr",female ZDF rats; [13],96 and 66 and 60 (2×) and 150
same,"Cholesterol day 7, 0 hr",female ZDF rats; [14],96 (2×) and 84 and 66 and 102
same,"Triglycerides day 7, 0 hr",female ZDF rats; [14],78 and 96 and 60 (2×) and 66
same,"Serum triglycerides Day 25, Mean",male cynomolgus monkeys,24.0 mg/dL
same,oral absorption,[1],well absorbed
same,body weight or rate of food consumption,male cynomologus monkeys,no change
same,general health / clinical signs,male cynomologus monkeys; 1.25 mg/kg,appeared healthy; also recorded: without any noticeable abnormal clinical signs
same,"non-fasting STG (Day 3, 8 a.m.)",male SJL mice [2],appeared to lower
same,"fasting STG (Day 4, 2 p.m.)",male SJL mice [2]; after 6 hours of fasting,but not fasting STG
same,HTG output after WR-1339 injection,male SJL mice [3],reduction of HTG output
same,stability to normal light,[4],relatively stable to normal light
